Source: patent publication US4459294A, “Phosphoric and thiophosphoric esters of 5(3)-hydroxypyrazoles exerting an insecticidal action” (priority 1977, dated 1984)

Assays:
Pieris brassicae = assay: Biological activity on Pieris brassicae (Lepitoptera), 5-day old larvae; type: in vivo; details: 0.1 permill.; 48 hours after treatment
Procedure: Biological activity on Pieris brassicae (Lepitoptera)
Cut cauliflower leaves were sprinkled with an aqueous dispersion of the products under examination. After drying, the leaves were infested with 5-day old larvae. The percentage death rate of the larvae (untreated leaves=0) was determined 48 hours after treatment.

Tetranychus urticae = assay: Biological activity on Tetranychus urticae (Acari) adults; type: in vivo; details: 0.01 permill.; 24 hours after treatment
Procedure: Biological Activity on Tetranychus urticae (Acari) adults
Small bean leaf discs were infected with adult acari and were then sprinkled with an aqueous dispersion of the products under examination. The percentage of mortality was determined 24 hours after the treatment (untreated discs, mortality=0).

[1] = system: Leptinatarsa decomlineata; assay: Biological activity on Leptinatarsa decomlineata (Coledptera), 4-day old larvae; type: in vivo; details: 0.1 permill.; 48 hours after treatment
Procedure: Biological activity on Leptinatarsa decomlineata (Coledptera)
Small, pot-grown potato-plants were infested with 4-day old larvae, and then were sprinkled with an aqueous dispersion of the products under examination. The percentage death rate (untreated plants=0) was determined 48 hours after treatment.

Spodoptera littoralis = assay: Biological activity on Spodoptera littoralis (Lepidoptera), 5-days old larvae; type: in vivo; details: 0.1 permill.; 48 hours after treatment
Procedure: Biological activity on Spodoptera littoralis (Lepidoptera)
Cut tobacco leaves were sprinkled with an aqueous dispersion of the products under examination. After drying, the leaves were infested with 5-days old larvae. The percentage mortality of the larvae was determined 48 hours after treatment (untreated leaves, mortality=0).

Musca domestica = assay: Biological activity on Musca domestica (Diptera), topical application; type: in vivo; details: 0.5 γ/ins, 24 hours after treatment
Procedure: Biological activity on Musca domestica (Diptera)
4-days old adults were treated, by topical application by microsyringe, with an acetonic solution of the products under examination.
The mortality percentage (insects treated with acetone only=0) was determined 24 hours after the treatment.

Culex pipiens adults = assay: Biological activity on Culex pipiens (Diptera): adults; type: in vivo; details: 0.2 g/m^2, 24 hours after beginning of treatment, read-out: percentage of reduction of the infestation (mortality percentage), Culex ad.
Procedure: Biological activity on Culex pipiens (Diptera): adults
Whatman n°1 paper rectangles were treated uniformly with an acetonic solution of the products under examination. After evaporation of the solvent, each treated paper rectangle was used to line the inside wall of a perspex cylinder (model OMS). The paper-lined perspex cylinder was then closed with a net after having introduced into it 2-3 days old adult females. After one hour from the start of the contact, the insects were transferred into a similar cylinder likewise lined with untreated paper, and were fed with a sugary solution.
The mortality percentage (untreated insects=0) was determined 24 hours after the beginning of the treatment.

Meloidogyne incognita = assay: Biological activity on Meloidogyne incognita (Nematoda); type: in vivo; details: 20 ppm; 21 days after transplanting
Procedure: Biological activity on Meloidogyne incognita (Nematoda)
Aliquot parts of a 1:1 mixture of field soil and sand, infested by Nematoda larvae and eggs, were treated by uniformly mixing same with an aqueous dispersion of the products under examination. The soil was then distributed into plastic pots, and after 5 days into each pot there were transplanted 5 tomato plants about 20 cm high. The survey of the results was carried out 21 days after the transplanting, by observing the roots of the plants extracted from the soil in order to ascertain the degree of infestation by counting the galls that have formed on them. The nematocide activity was expressed as a percentage of reduction of the infestation with respect to the witness plant (small plants transplanted into untreated soil, activity=0).

Toxicity by os on rats = details: rat, in vivo, po
Blatta orientalis = assay: Biological activity on Blatta orientalis (Ortoptera); type: in vivo; details: 0.1 g/m^2, 48 hours after start of treatment, read-out: percentage of reduction of the infestation (percentage mortality), Blatta
Procedure: Biological activity on Blatta orientalis (Ortoptera)
The bottom and side walls of glass beakers were treated uniformly with an acetonic solution of the products under examination. After evaporation of the solvent in each beaker, into the same were then introduced ten, 80-100 days old neanides, whereafter they were closed with a lid of metal netting. After 24 hours from the beginning of the treatment, the insects were transferred into untreated glass beakers, and suitably nourished. The percentage mortality (untreated insects=0) was determined 48 hours after the start of the treatment.

Culex pipiens larvae = assay: Biological activity on Culex pipiens (diptera) larvae; type: in vivo; details: 24 hours after treatment, read-out: percentage of reduction of the infestation (percentage death rate), Culex larvae
Procedure: Biological activity on Culex pipiens (diptera) larvae
Into glasses containing an aqueous dispersion of the products under examination, were introduced third and fourth age mosquito larvae. The percentage death rate of the larvae (glasses containing pure water=0) was determined 24 hours after treatment.

Macrosiphum euphorbiae = assay: Biological activity on Macrosiphum euphorbiae (aphides); type: in vivo; set-up: tested at 0.01 permill; details: 0.01 permill.; 24 hours after treatment
Procedure: Biological activity on Macrosiphum euphorbiae (aphides)
Small potato plants grown in pots were infested with adult female aphides and, after several hours, were sprinkled with an aqueous dispersion of the products under examination.
The percentage death rate was determined 24 hours after treatment (untreated plants=0).

[2] = system: insects, acari and nematoda; assay: Pesticidal activity against insects, acari and nematoda (general statements); type: in vivo
Procedure: The pesticidal activity, verified by the methods described below in Example 12, is recorded below in the following Table 3 in comparison with that of "Pyrazothion".

Structure (SMILES)	percentage of reduction of the infestation (percentage death rate of larvae), Pieris B (Pieris brassicae) [%]	percentage of reduction of the infestation (percentage of mortality), Tetran U. (Tetranychus urticae) [%]	percentage of reduction of the infestation (percentage death rate), Leptinot D. [1] [%]	percentage of reduction of the infestation (percentage mortality of larvae), Spodoptera L (Spodoptera littoralis) [%]	percentage of reduction of the infestation (mortality percentage), Musca d. (Musca domestica) [%]	mortality at 0.2 g/m2 (Culex pipiens adults) [%]	percentage of reduction of the infestation, Meloidog. I. (Meloidogyne incognita) [%]	LD50 (Toxicity by os on rats) [mg/kg]	mortality at 0.1 g/m2 (Blatta orientalis) [%]	mortality at 0.2 ppm (Culex pipiens larvae) [%]	percentage of reduction of the infestation (percentage death rate), Macrosiph. E. (Macrosiphum euphorbiae) [%]	activity against Spodoptera, Culex, Musca, Leptinotarsa, Meloidogine incognita ([2]; Spodoptera, Culex, Musca, Leptinotarsa, Meloidogine incognita)	activity against insects, acari and nematoda ([2]; in vivo)
CCOP(=S)(OCC)Oc1cc(Cl)nn1C(C)C [Compound 5]	100	100	100	60	100	100	90	22	100	100	100	–	–
CCOP(=S)(OC)Oc1cc(Cl)nn1C (stereo not drawn) [Compound 23]	100	100	100	100	100	100	100	487	100	100	92	–	–
CCOP(=S)(OC)Oc1cc(Cl)nn1-c1ccccc1 (stereo not drawn) [Compound 37]	100	0	100	100	100	100	47	320	100	100	48	–	–
COP(=S)(OC)Oc1cc(Cl)nn1-c1ccccc1 [Compound 1, O,O-dimethyl-0-(1-phenyl-3-chloropyrazol-5-yl) thiophosphate]	100	60	100	100	100	100	80	400	100	100	90	–	–
CCOP(=S)(OCC)Oc1cc(C=C(Cl)Cl)nn1C [Compound 6]	100	100	100	100	100	76	95	175	100	100	100	–	–
COP(=S)(OC)Oc1cc(Cl)nn1C [Compound 14]	100	100	37	82	100	100	41	560	100	100	96	–	–
CCOP(=S)(OCC)Oc1cc(C)[nH]n1 [Pyrazothion, diethyl-thiophosphoric ester of 3(5)-methyl-5(3)-hydroxypyrazole, reference compound]	70	90	0	0	0	0	0	36	20	0	60	ineffective	does not shown activity
CCOP(=S)(OCC)Oc1cc(Cl)nn1C [Compound 13]	100	100	100	100	100	100	100	25	100	100	99	–	–
COP(=S)(OC)Oc1cc(Cl)nn1C(C)C [Compound 4]	–	80	100	80	100	100	–	1100	100	100	94	–	–
